Measured values taken from US9695155B2, “Herbicidal substituted pyrimidinyloxy benzene compounds” (E. I. DU PONT DE NEMOURS AND COMPANY, priority 2013, dated 2017).

Tests used:
[1] = system: Brazilian crabgrass; test: Test E preemergence; type: in vivo, Digitaria horizontalis; conditions: for Crabgrass, Brazil plant response rating: scale 0 to 100 (0 no effect, 100 complete control)
Procedure, shortened: (§1)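 Test chemicals formulated in a non-phytotoxic solvent mixture containing a surfactant were applied preemergence to seeds in silt loam soil or postemergence to plants at the 1- to 4-leaf stage in potting mix. After 14 to 21 days in a greenhouse, injury was visually rated against controls on a 0-100 scale (0 = no effect, 100 = complete control).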

[2] = system: field bindweed; test: Test E preemergence; type: in vivo, Convolvulus arvensis; conditions: for Field Bindweed plant response rating: scale 0 to 100 (0 no effect, 100 complete control)
Procedure, shortened: as §1

[3] = system: arrowleaf sida; test: Test E preemergence; type: in vivo, Sida rhombifolia; conditions: for Arrowleaf Sida plant response rating: scale 0 to 100 (0 no effect, 100 complete control)
Procedure, shortened: as §1

[4] = system: velvetleaf; test: Test E preemergence; type: in vivo, Abutilon theophrasti; conditions: for Velvetleaf plant response rating: scale 0 to 100 (0 no effect, 100 complete control)
Procedure, shortened: as §1

[5] = system: nightshade; test: Test E preemergence; type: in vivo, Solanum ptycanthum; conditions: for Nightshade plant response rating: scale 0 to 100 (0 no effect, 100 complete control)
Procedure, shortened: as §1

[6] = system: rice; test: Test C flooded paddy test; type: in vivo, Oryza sativa; conditions: Flood, scale 0 to 100 (0 no effect, 100 complete control), 13 to 15 days
Procedure, shortened: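 Visual injury ratings against untreated controls, taken 13 to 15 days after compound was added to paddy water standing 3 cm above the soil.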

[7] = system: sandbur; test: Test E preemergence; type: in vivo, Cenchrus echinatus; conditions: for Sandbur plant response rating: scale 0 to 100 (0 no effect, 100 complete control)
Procedure, shortened: as §1

[8] = system: yellow nutsedge; test: Test E preemergence; type: in vivo, Cyperus esculentus; conditions: for Nutsedge, Yellow plant response rating: scale 0 to 100 (0 no effect, 100 complete control)
Procedure, shortened: as §1

[9] = system: morningglory; test: Test E preemergence; type: in vivo, Ipomoea coccinea; conditions: for Morningglory plant response rating: scale 0 to 100 (0 no effect, 100 complete control)
Procedure, shortened: as §1

[10] = system: giant foxtail; test: Test E preemergence; type: in vivo, Setaria faberii; conditions: for Foxtail, Giant plant response rating: scale 0 to 100 (0 no effect, 100 complete control)
Procedure, shortened: as §1

[11] = 125 g ai/ha, scale 0 to 100, 0 no effect, 100 complete control
[12] = 250 g ai/ha, scale 0 to 100, 0 no effect, 100 complete control
[13] = preemergence, 125 g ai/ha, scale 0 to 100, 0 no effect, 100 complete control
[14] = 8 g ai/ha, scale 0 to 100, 0 is no effect, 100 is complete control

N#Cc1cccc(Oc2ncc(Br)cn2)c1-n1cc(C(F)(F)F)cn1 [Compound 59, 3-[(5-bromo-2-pyrimidinyl)oxy]-2-[4-(trifluoromethyl)-1H-pyrazol-1-yl]benzonitrile]
Crabgrass, Brazil plant response rating ([1]; 16 g ai/ha): 80 | Crabgrass, Brazil plant response rating ([1]; 31 g ai/ha): 100 | Crabgrass, Brazil plant response rating ([1]; 62 g ai/ha): 100 | Plant response rating, Crabgrass, Brazil [1, 11]: 100 | Plant response rating, Crabgrass, Brazil [1, 12]: 100 | Field Bindweed plant response rating ([2]; 16 g ai/ha): 0 | Field Bindweed plant response rating ([2]; 31 g ai/ha): 5 | Field Bindweed plant response rating ([2]; 62 g ai/ha): 60 | Plant response rating, Field Bindweed [2, 11]: 60 | Plant response rating, Field Bindweed [2, 12]: 100 | Arrowleaf Sida plant response rating ([3]; 16 g ai/ha, preemergence): 50 | Arrowleaf Sida plant response rating ([3]; 31 g ai/ha, preemergence): 50 | Plant response rating, Arrowleaf Sida ([3]; Preemergence, 62 g ai/ha, scale 0 to 100, 0 no effect, 100 complete control): 75 | Plant response rating, Arrowleaf Sida [3, 13]: 100 | Plant response rating, Arrowleaf Sida ([3]; preemergence, 250 g ai/ha, scale 0 to 100, 0 no effect, 100 complete control): 100 | Velvetleaf plant response rating ([4]; 16 g ai/ha): 0 | Velvetleaf plant response rating ([4]; 31 g ai/ha): 25 | Velvetleaf plant response rating ([4]; 62 g ai/ha): 75 | Plant response rating, Velvetleaf [4, 11]: 100 | Plant response rating, Velvetleaf [4, 12]: 100 | Nightshade plant response rating ([5]; 16 g ai/ha): 0 | Nightshade plant response rating ([5]; 31 g ai/ha): 50 | Nightshade plant response rating ([5]; 62 g ai/ha): 90 | Plant response rating, Nightshade [5, 11]: 100 | Plant response rating, Nightshade [5, 12]: 100 | Plant response rating, Rice ([6]; 31 g ai/ha): 0 | Plant response rating, Rice ([6]; 62 g ai/ha): 15 | Plant response rating, Rice ([6]; 125 g ai/ha): 20 | Plant response rating, Rice ([6]; 250 g ai/ha): 20 | Sandbur plant response rating ([7]; 16 g ai/ha): 0 | Sandbur plant response rating ([7]; 31 g ai/ha): 15 | Sandbur plant response rating ([7]; 62 g ai/ha): 30 | Plant response rating, Sandbur [7, 11]: 50 | Plant response rating, Sandbur [7, 12]: 95 | Nutsedge, Yellow plant response rating ([8]; 16 g ai/ha): 0 | Nutsedge, Yellow plant response rating ([8]; 31 g ai/ha): 0 | Nutsedge, Yellow plant response rating ([8]; 62 g ai/ha): 0 | Plant response rating, Nutsedge, Yellow [8, 11]: 30 | Plant response rating, Nutsedge, Yellow [8, 12]: 50 | Morningglory plant response rating ([9]; 16 g ai/ha): 0 | Morningglory plant response rating ([9]; 31 g ai/ha): 15 | Morningglory plant response rating ([9]; 62 g ai/ha): 65 | Plant response rating, Morningglory [9, 11]: 75 | Plant response rating, Morningglory [9, 12]: 100 | Foxtail, Giant plant response rating ([10]; 16 g ai/ha): 5 | Foxtail, Giant plant response rating ([10]; 31 g ai/ha): 10 | Foxtail, Giant plant response rating ([10]; 62 g ai/ha): 85 | Plant response rating, Foxtail, Giant [10, 11]: 100 | Plant response rating, Foxtail, Giant [10, 12]: 100

FC(F)(F)c1cnn(-c2c(Cl)cccc2Oc2ncc(Cl)cn2)c1 [Compound 167]
Crabgrass, Brazil plant response rating ([1]; 16 g ai/ha): 0 | Crabgrass, Brazil plant response rating ([1]; 31 g ai/ha): 20 | Crabgrass, Brazil plant response rating ([1]; 62 g ai/ha): 75 | Plant response rating, Crabgrass, Brazil [1, 11]: 100 | Field Bindweed plant response rating ([2]; 16 g ai/ha): 0 | Field Bindweed plant response rating ([2]; 31 g ai/ha): 0 | Field Bindweed plant response rating ([2]; 62 g ai/ha): 0 | Plant response rating, Field Bindweed [2, 11]: 10 | Arrowleaf Sida plant response rating ([3]; 16 g ai/ha, preemergence): 65 | Arrowleaf Sida plant response rating ([3]; 31 g ai/ha, preemergence): 65 | Arrowleaf Sida plant response rating ([3]; 62 g ai/ha, preemergence): 100 | Plant response rating, Arrowleaf Sida [3, 13]: 100 | Velvetleaf plant response rating ([4]; 31 g ai/ha): 20 | Velvetleaf plant response rating ([4]; 62 g ai/ha): 65 | Plant response rating, Velvetleaf [4, 11]: 100 | Nightshade plant response rating ([5]; 31 g ai/ha): 98 | Nightshade plant response rating ([5]; 62 g ai/ha): 100 | Plant response rating, Nightshade [5, 11]: 100 | Plant response rating, Rice ([6]; 31 g ai/ha): 0 | Plant response rating, Rice ([6]; 62 g ai/ha): 0 | Plant response rating, Rice ([6]; 125 g ai/ha): 0 | Plant response rating, Rice ([6]; 250 g ai/ha): 0 | Sandbur plant response rating ([7]; 31 g ai/ha): 0 | Sandbur plant response rating ([7]; 62 g ai/ha): 20 | Plant response rating, Sandbur [7, 11]: 65 | Nutsedge, Yellow plant response rating ([8]; 31 g ai/ha): 0 | Nutsedge, Yellow plant response rating ([8]; 62 g ai/ha): 0 | Plant response rating, Nutsedge, Yellow [8, 11]: 0 | Morningglory plant response rating ([9]; 31 g ai/ha): 25 | Morningglory plant response rating ([9]; 62 g ai/ha): 40 | Plant response rating, Morningglory [9, 11]: 65 | Foxtail, Giant plant response rating ([10]; 16 g ai/ha): 0 | Foxtail, Giant plant response rating ([10]; 31 g ai/ha): 0 | Foxtail, Giant plant response rating ([10]; 62 g ai/ha): 100 | Plant response rating, Foxtail, Giant [10, 11]: 100

Fc1cccc(Oc2ncc(Cl)cn2)c1-n1cc(I)cn1 [Compound 179]
Plant response rating, Crabgrass, Brazil [1, 14]: 0 | Crabgrass, Brazil plant response rating ([1]; 16 g ai/ha): 0 | Crabgrass, Brazil plant response rating ([1]; 62 g ai/ha): 65 | Plant response rating, Crabgrass, Brazil [1, 11]: 100 | Plant response rating, Field Bindweed [2, 14]: 0 | Field Bindweed plant response rating ([2]; 16 g ai/ha): 0 | Field Bindweed plant response rating ([2]; 62 g ai/ha): 0 | Plant response rating, Field Bindweed [2, 11]: 30 | Plant response rating, Arrowleaf Sida ([3]; 8 g ai/ha, preemergence, scale 0 to 100, 0 is no effect, 100 is complete control): 0 | Arrowleaf Sida plant response rating ([3]; 16 g ai/ha, preemergence): 20 | Arrowleaf Sida plant response rating ([3]; 62 g ai/ha, preemergence): 100 | Plant response rating, Arrowleaf Sida [3, 13]: 100 | Plant response rating, Velvetleaf [4, 14]: 20 | Velvetleaf plant response rating ([4]; 62 g ai/ha): 100 | Plant response rating, Velvetleaf [4, 11]: 100 | Plant response rating, Nightshade [5, 14]: 0 | Nightshade plant response rating ([5]; 62 g ai/ha): 80 | Plant response rating, Nightshade [5, 11]: 95 | Plant response rating, Rice ([6]; 31 g ai/ha): 0 | Plant response rating, Rice ([6]; 62 g ai/ha): 0 | Plant response rating, Rice ([6]; 125 g ai/ha): 10 | Plant response rating, Rice ([6]; 250 g ai/ha): 10 | Plant response rating, Sandbur [7, 14]: 0 | Sandbur plant response rating ([7]; 62 g ai/ha): 15 | Plant response rating, Sandbur [7, 11]: 15 | Plant response rating, Nutsedge, Yellow [8, 14]: 0 | Nutsedge, Yellow plant response rating ([8]; 62 g ai/ha): 30 | Plant response rating, Nutsedge, Yellow [8, 11]: 30 | Plant response rating, Morningglory [9, 14]: 0 | Morningglory plant response rating ([9]; 62 g ai/ha): 10 | Plant response rating, Morningglory [9, 11]: 30 | Plant response rating, Foxtail, Giant [10, 14]: 0 | Foxtail, Giant plant response rating ([10]; 16 g ai/ha): 0 | Foxtail, Giant plant response rating ([10]; 62 g ai/ha): 65 | Plant response rating, Foxtail, Giant [10, 11]: 100

FC(F)c1cccc(Oc2ncc(Cl)cn2)c1-n1cc(Br)cn1 [Compound 194, 2-[2-(4-bromo-1H-pyrazol-1-yl)-3-(difluoromethyl)phenoxy]-5-chloropyrimidine]
Crabgrass, Brazil plant response rating ([1]; 31 g ai/ha): 65 | Crabgrass, Brazil plant response rating ([1]; 62 g ai/ha): 98 | Field Bindweed plant response rating ([2]; 31 g ai/ha): 0 | Field Bindweed plant response rating ([2]; 62 g ai/ha): 40 | Arrowleaf Sida plant response rating ([3]; 31 g ai/ha, preemergence): 35 | Arrowleaf Sida plant response rating ([3]; 62 g ai/ha, preemergence): 100 | Velvetleaf plant response rating ([4]; 31 g ai/ha): 5 | Velvetleaf plant response rating ([4]; 62 g ai/ha): 25 | Nightshade plant response rating ([5]; 31 g ai/ha): 95 | Nightshade plant response rating ([5]; 62 g ai/ha): 95 | Plant response rating, Rice ([6]; 31 g ai/ha): 10 | Plant response rating, Rice ([6]; 62 g ai/ha): 10 | Plant response rating, Rice ([6]; 125 g ai/ha): 10 | Plant response rating, Rice ([6]; 250 g ai/ha): 10 | Sandbur plant response rating ([7]; 31 g ai/ha): 20 | Sandbur plant response rating ([7]; 62 g ai/ha): 20 | Nutsedge, Yellow plant response rating ([8]; 31 g ai/ha): 0 | Nutsedge, Yellow plant response rating ([8]; 62 g ai/ha): 20 | Morningglory plant response rating ([9]; 31 g ai/ha): 0 | Morningglory plant response rating ([9]; 62 g ai/ha): 0 | Foxtail, Giant plant response rating ([10]; 31 g ai/ha): 25 | Foxtail, Giant plant response rating ([10]; 62 g ai/ha): 75
